Measurements as given in BindingDB's records for doi:10.1016/j.bmc.2007.07.029 (Polish Academy of Sciences, 2007).

How the values were obtained:
Assay in all cases: Radioligand Binding Assay (Ki)
[1] = target: 5-hydroxytryptamine receptor 7 (Homo sapiens, UniProt P34969); settings: pH 7.4; 37 °C
Method: (§1) Competition experiments were performed in the presence radioligand with membrane protein and test compounds. After incubation, the reaction stopped by rapid filtration onto a 96-well GF/B filter. Radioactivity retained on the filters was measured by liquid scintillation counting (Beckman LS 6500 apparatus). IC50 values for test compounds were determined from nonlinear regression analysis of data collected from ligand binding experiments. The inhibition constant (Ki) was calculated from IC50 value by the Cheng and Prusoff equation.

D(2) dopamine receptor = D(2) dopamine receptor (Rattus norvegicus, UniProt P61169)
Method: as §1

[2] = target: T1, 5-hydroxytryptamine receptor 1A (Rattus norvegicus, UniProt P19327); settings: pH 7.4; 37 °C
T1 sequence (P19327 whole entry): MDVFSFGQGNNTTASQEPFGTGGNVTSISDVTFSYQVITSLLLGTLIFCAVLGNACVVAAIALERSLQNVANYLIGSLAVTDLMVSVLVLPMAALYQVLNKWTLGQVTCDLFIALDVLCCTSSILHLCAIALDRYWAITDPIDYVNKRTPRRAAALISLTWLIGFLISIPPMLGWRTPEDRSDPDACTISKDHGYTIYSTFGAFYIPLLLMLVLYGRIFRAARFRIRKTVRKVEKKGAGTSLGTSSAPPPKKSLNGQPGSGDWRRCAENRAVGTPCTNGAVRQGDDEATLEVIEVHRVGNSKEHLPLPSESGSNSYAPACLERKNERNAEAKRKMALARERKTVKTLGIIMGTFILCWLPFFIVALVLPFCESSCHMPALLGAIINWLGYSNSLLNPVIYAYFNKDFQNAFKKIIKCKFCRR
Method: as §1

[3] = target: T2, Alpha-1B adrenergic receptor (Rattus norvegicus, UniProt P15823)
T2 sequence (P15823 whole entry): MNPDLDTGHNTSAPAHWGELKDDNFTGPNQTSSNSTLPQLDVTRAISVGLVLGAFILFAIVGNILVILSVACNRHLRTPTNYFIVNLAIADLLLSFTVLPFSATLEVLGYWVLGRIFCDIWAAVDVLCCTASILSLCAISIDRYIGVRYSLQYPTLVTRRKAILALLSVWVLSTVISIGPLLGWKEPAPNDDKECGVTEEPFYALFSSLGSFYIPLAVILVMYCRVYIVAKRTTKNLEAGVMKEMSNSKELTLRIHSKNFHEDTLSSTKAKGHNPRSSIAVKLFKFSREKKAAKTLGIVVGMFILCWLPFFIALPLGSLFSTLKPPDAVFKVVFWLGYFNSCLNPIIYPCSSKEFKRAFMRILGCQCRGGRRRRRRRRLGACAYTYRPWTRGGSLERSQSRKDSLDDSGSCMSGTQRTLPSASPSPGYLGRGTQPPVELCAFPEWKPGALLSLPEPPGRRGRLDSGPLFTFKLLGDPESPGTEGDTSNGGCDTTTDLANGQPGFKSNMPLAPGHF
Method: as §1

Chain of 5-hydroxytryptamine receptor 7 (P34969 whole entry): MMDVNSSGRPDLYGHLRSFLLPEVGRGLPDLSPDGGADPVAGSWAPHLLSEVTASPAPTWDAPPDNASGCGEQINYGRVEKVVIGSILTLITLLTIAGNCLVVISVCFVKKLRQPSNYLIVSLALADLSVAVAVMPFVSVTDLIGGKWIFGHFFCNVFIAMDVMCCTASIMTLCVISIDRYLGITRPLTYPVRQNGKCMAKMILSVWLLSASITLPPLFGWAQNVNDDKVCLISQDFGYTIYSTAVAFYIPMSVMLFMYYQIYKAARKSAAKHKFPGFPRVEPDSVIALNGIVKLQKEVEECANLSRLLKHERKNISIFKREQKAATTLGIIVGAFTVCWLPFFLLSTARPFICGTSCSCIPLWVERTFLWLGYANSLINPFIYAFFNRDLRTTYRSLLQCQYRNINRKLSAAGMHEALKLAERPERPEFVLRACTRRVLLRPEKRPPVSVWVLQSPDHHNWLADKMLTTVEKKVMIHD
Chain of D(2) dopamine receptor (P61169 whole entry): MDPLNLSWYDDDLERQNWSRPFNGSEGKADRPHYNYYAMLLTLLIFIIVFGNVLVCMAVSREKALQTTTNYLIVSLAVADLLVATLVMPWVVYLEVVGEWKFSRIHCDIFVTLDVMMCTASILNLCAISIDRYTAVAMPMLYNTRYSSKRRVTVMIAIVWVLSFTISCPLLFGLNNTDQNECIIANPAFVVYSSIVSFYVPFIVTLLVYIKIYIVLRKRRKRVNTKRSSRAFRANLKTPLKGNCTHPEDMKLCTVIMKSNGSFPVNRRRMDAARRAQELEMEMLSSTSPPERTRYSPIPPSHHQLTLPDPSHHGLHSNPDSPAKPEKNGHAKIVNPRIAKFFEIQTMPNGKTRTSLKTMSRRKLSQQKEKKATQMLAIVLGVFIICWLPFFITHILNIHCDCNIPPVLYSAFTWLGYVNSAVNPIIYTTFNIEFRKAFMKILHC

Structure (SMILES): O=C1CCC(=O)N1C1CCC(N2CCN(c3cccc(C(F)(F)F)c3)CC2)CC1 (centres undefined) [1-(m-trifluorophenyl)piperazine, 4]
- Ki [1]: 1820 nM
- Ki (D(2) dopamine receptor): > 25000 nM
- Ki [2]: 4 nM
- Ki [3]: 505 nM
